Test results from patent US9115106B2, “Use of 5-hydroxy-2-hydroxymethyl-γ-pyrone (HMP) as a leishmanicidal agent” (UNIVERSIDADE FEDERAL DO PARA, priority 2008, dated 2015).
Values joined by “and” are separate entries in the source; they are usually repeats but may differ in a detail not shown here. Equal entries are not always repeated.

Columns and labels:
[1] = tested on: Leishmania promastigotes; assay: Leishmanicidal activity on promastigotes; format: cell-based, L. amazonensis; conditions: 50 μg/mL
[2] = tested on: L. amazonensis amastigotes in infected macrophages; assay: Leishmanicidal activity on amastigotes during in vitro infection of macrophages; format: cell-based
Experimental: (§1) The peritoneal murine macrophage cells were cultured at 37° C. and 5% CO2 in Dulbecco's modified Eagle's medium (DMEM) supplemented with 10% heat-inactivated sterile filtered fetal bovine serum (FCS), 10 mM Hepes, pH 7.3, 100 U/mL penicillin and 100 µg/mL streptomycin (all from Gibco BRL/Life Technologies, Middlesex, UK). Cells were used after 24 hours of culture. L. amazonensis promastigotes were obtained from the Evandro Chagas Institute in NNN medium and maintained at 26° C. in RPMI1640 medium. Host cells were cultivated and infected or not with L. amazonensis, before treating or not with HMP at the same concentrations described previously.

[3] = tested on: peritoneal murine macrophage cells; assay: Cellular viability by MTT and Neutral Red assays; format: cell-based; conditions: 10, 20 and 50 μg/mL HMP in DMEM
Experimental: The peritoneal murine macrophage cells were cultured at 37° C. and 5% CO2 in Dulbecco's modified Eagle's medium (DMEM) supplemented with 10% heat-inactivated sterile filtered fetal bovine serum (FCS), 10 mM Hepes, pH 7.3, 100 U/mL penicillin and 100 µg/mL streptomycin (all from Gibco BRL/Life Technologies, Middlesex, UK). Cells were used after 24 hours of culture. […] Viability analyses performed by through Thiazolyl Blue (MTT) e Neutral Red (NR) assays.

[4] = tested on: host cells infected with L. amazonensis; assay: Superoxide production, histochemical assay with Nitro Blue Tetrazolium (NBT); format: cell-based, murine; conditions: 50 μg/mL, compared with control cells
Experimental: as §1, with “culture.” for “culture. L. amazonensis promastigotes were obtained from the Evandro Chagas Institute in NNN medium and maintained at 26° C. in RPMI1640 medium.”

[5] = tested on: peritoneal murine macrophage cells; assay: Morphological analysis of host cells by light, fluorescence and electron microscopy; format: cell-based; conditions: treated cells compared with control cells
Experimental: The peritoneal murine macrophage cells were cultured at 37° C. and 5% CO2 in Dulbecco's modified Eagle's medium (DMEM) supplemented with 10% heat-inactivated sterile filtered fetal bovine serum (FCS), 10 mM Hepes, pH 7.3, 100 U/mL penicillin and 100 µg/mL streptomycin (all from Gibco BRL/Life Technologies, Middlesex, UK). Cells were used after 24 hours of culture. Firstly, morphological alterations were observed by light and fluorescence microscopy, as well as transmission and scanning electron microscopy in host cells, treated or not with 10, 20 and 50 μg/mL of HMP diluted in DMEM. Viability analyses performed by through Thiazolyl Blue (MTT) e Neutral Red (NR) assays.

[6] = tested on: leukemia P388; conditions: leukemia P388 in mice; cited from earlier work
[7] = tested on: rats; conditions: cited from earlier work
[8] = tested on: thyroid; conditions: continued administration of high doses, rats; cited from earlier work
[9] = tested on: tyrosinases 1 and 2; conditions: Schistosoma mansoni eggs; cited from earlier work
[10] = ideal doses of consumption; no risk in doses of 0.03-0.06 mg/kg/day; cited from earlier work
[11] = tested on: bacteria from various genera; conditions: Aerobacter, Bacillus, Escherichia, Staphylococcus and other genera; cited from earlier work
[12] = tested on: melasma; conditions: HMP added to trichloroacetic acid and glycolic acid mixture; cited from earlier work
[13] = estimated; cited from earlier work
[14] = water, ethanol, or acetone; cited from earlier work
[15] = tested on: bacteria (bacilos, Salmonella); conditions: cited from earlier work

O=c1cc(CO)occ1O [HMP, 5-hydroxy-2-hydroxymethyl-γ-pyrone]
inhibition at 50 µg/mL [1]: 68%
minimal concentration with leishmanicidal activity ([2]; activating host cell microbicidal response): 50 µg/mL
reduction in amastigotes during in vitro infection ([2]; cells treated with 50 μg/mL): 79%
effect on intracellular amastigote (ultrastructural observations) ([2]; parasites inside the macrophages): causing morphological alterations and death
cytotoxic effect by MTT and NR assays [3]: not due to unspecific cytotoxic effect
superoxide production (NBT) [4]: greater superoxide production
host cell activation (morphology) [5]: increase on actin filament polymerization and spreading
antitumoural activity [6]: positive effects of antitumoural activity
teratogenic effect [7]: did not cause any teratogenic effect
thyroid tumour induction [8]: induction of thyroid adenomas
inhibition of tyrosinase activity [9]: inhibit the activity of tyrosinases 1 and 2
toxic or genotoxic effects [10]: does not contain toxic or genotoxic effects
antibacterial activity [11]: inhibition of bacteria from various genera
effect on melasma treatment [12]: improved treatment of melasma
pKa [13]: 7.90 and 8.03
solubility [14]: freely soluble
mutagenicity [15]: evidence in the literature regarding the mutagenicity of HMP in bacteria
